Measurements from PubChem BioAssay (NCI).
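Tested at 5 concentrations; 48 h exposure; 96-well plates; endpoints linearly interpolated, else capped at highest concentration. Abbreviation: GI50, concentration required for 50% inhibition of growth. TGI: total growth inhibition.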

Key:
Experiment in all cases: NCI tumour cell line growth inhibition, 48 h
UO-31 renal = test system: UO-31 renal
ACHN renal = test system: ACHN renal
MOLT-4 leukemia = test system: MOLT-4 leukemia
RXF 393 renal = test system: RXF 393 renal
SK-OV-3 ovarian = test system: SK-OV-3 ovarian
NCI-H522 lung = test system: NCI-H522 lung
SK-MEL-2 melanoma = test system: SK-MEL-2 melanoma
HOP-92 NSCLC = test system: HOP-92 NSCLC
SF-539 CNS = test system: SF-539 CNS
NCI-H460 lung = test system: NCI-H460 lung
HL-60(TB) leukemia = test system: HL-60(TB) leukemia
MDA-MB-435 = test system: MDA-MB-435
A498 renal = test system: A498 renal
SW-620 colon = test system: SW-620 colon
IGROV1 ovarian = test system: IGROV1 ovarian
HCC-2998 colon = test system: HCC-2998 colon
UACC-257 melanoma = test system: UACC-257 melanoma
786-0 renal = test system: 786-0 renal
SF-268 CNS = test system: SF-268 CNS
OVCAR-4 ovarian = test system: OVCAR-4 ovarian
A549 NSCLC = test system: A549 NSCLC
TK-10 renal = test system: TK-10 renal
NCI/ADR-RES ovarian = test system: NCI/ADR-RES ovarian
SK-MEL-28 melanoma = test system: SK-MEL-28 melanoma
NCI-H23 lung = test system: NCI-H23 lung
CCRF-CEM leukemia = test system: CCRF-CEM leukemia
KM12 colon = test system: KM12 colon
M14 melanoma = test system: M14 melanoma
HCT-15 colon = test system: HCT-15 colon
OVCAR-8 ovarian = test system: OVCAR-8 ovarian
MCF7 breast = test system: MCF7 breast
MALME-3M melanoma = test system: MALME-3M melanoma
SNB-75 CNS = test system: SNB-75 CNS
LOX IMVI melanoma = test system: LOX IMVI melanoma
HS 578T breast = test system: HS 578T breast
SF-295 CNS = test system: SF-295 CNS
U251 CNS = test system: U251 CNS
BT-549 breast = test system: BT-549 breast
K-562 leukemia = test system: K-562 leukemia
T-47D breast = test system: T-47D breast
CAKI-1 renal = test system: CAKI-1 renal
HOP-62 NSCLC = test system: HOP-62 NSCLC
EKVX NSCLC = test system: EKVX NSCLC
NCI-H226 lung = test system: NCI-H226 lung
SK-MEL-5 melanoma = test system: SK-MEL-5 melanoma
PC-3 prostate = test system: PC-3 prostate
COLO 205 colon = test system: COLO 205 colon
HT29 colon = test system: HT29 colon
SN12C renal = test system: SN12C renal
UACC-62 melanoma = test system: UACC-62 melanoma
SR leukemia = test system: SR leukemia
OVCAR-5 ovarian = test system: OVCAR-5 ovarian
DU-145 prostate = test system: DU-145 prostate
OVCAR-3 ovarian = test system: OVCAR-3 ovarian
MDA-MB-231 breast = test system: MDA-MB-231 breast
HCT-116 colon = test system: HCT-116 colon
SNB-19 CNS = test system: SNB-19 CNS
RPMI-8226 leukemia = test system: RPMI-8226 leukemia

## Nc1ccccc1/C=N\Nc1ccccc1
UO-31 renal
  GI50: 2.43 µM
  TGI: > 100 µM
ACHN renal
  GI50: 3.01 µM
  TGI: > 100 µM
MOLT-4 leukemia
  GI50: 26.3 µM
  TGI: > 100 µM
RXF 393 renal
  GI50: > 100 µM
  TGI: > 100 µM
SK-OV-3 ovarian
  GI50: > 100 µM
  TGI: > 100 µM
NCI-H522 lung
  GI50: > 100 µM
  TGI: > 100 µM
SK-MEL-2 melanoma
  GI50: 65.4 µM
  TGI: > 100 µM
HOP-92 NSCLC
  GI50: 6.27 µM
  TGI: > 100 µM
SF-539 CNS
  GI50: 1.27 µM
  TGI: 7.04 µM
NCI-H460 lung
  GI50: 2.35 µM
  TGI: > 100 µM
HL-60(TB) leukemia
  GI50: 1.78 µM
  TGI: 29.3 µM
MDA-MB-435
  GI50: 4.5 µM
  TGI: > 100 µM
A498 renal
  GI50: > 100 µM
  TGI: > 100 µM
SW-620 colon
  GI50: 11.5 µM
  TGI: > 100 µM
IGROV1 ovarian
  GI50: > 100 µM
  TGI: > 100 µM
HCC-2998 colon
  GI50: 3.16 µM
  TGI: > 100 µM
UACC-257 melanoma
  GI50: 51.5 µM
  TGI: > 100 µM
786-0 renal
  GI50: 2.69 µM
  TGI: > 100 µM
SF-268 CNS
  GI50: > 100 µM
  TGI: > 100 µM
OVCAR-4 ovarian
  GI50: 3.91 µM
  TGI: > 100 µM
A549 NSCLC
  GI50: 4.7 µM
  TGI: > 100 µM
TK-10 renal
  GI50: > 100 µM
  TGI: > 100 µM
NCI/ADR-RES ovarian
  GI50: 5.8 µM
  TGI: > 100 µM
SK-MEL-28 melanoma
  GI50: > 100 µM
  TGI: > 100 µM
NCI-H23 lung
  GI50: > 100 µM
  TGI: > 100 µM
CCRF-CEM leukemia
  GI50: 0.431 µM
  TGI: > 100 µM
KM12 colon
  GI50: 0.602 µM
  TGI: > 100 µM
M14 melanoma
  GI50: 4.05 µM
  TGI: > 100 µM
HCT-15 colon
  GI50: 5.13 µM
  TGI: > 100 µM
OVCAR-8 ovarian
  GI50: > 100 µM
  TGI: > 100 µM
MCF7 breast
  GI50: 8.92 µM
  TGI: > 100 µM
MALME-3M melanoma
  GI50: > 100 µM
  TGI: > 100 µM
SNB-75 CNS
  GI50: > 100 µM
  TGI: > 100 µM
LOX IMVI melanoma
  GI50: 1.29 µM
  TGI: > 100 µM
HS 578T breast
  GI50: > 100 µM
  TGI: > 100 µM
SF-295 CNS
  GI50: 1.63 µM
  TGI: > 100 µM
U251 CNS
  GI50: > 100 µM
  TGI: > 100 µM
BT-549 breast
  GI50: 74.1 µM
  TGI: > 100 µM
K-562 leukemia
  GI50: 3.24 µM
  TGI: > 100 µM
T-47D breast
  GI50: 5.04 µM
  TGI: > 100 µM
CAKI-1 renal
  GI50: 1.02 µM
  TGI: > 100 µM
HOP-62 NSCLC
  GI50: > 100 µM
  TGI: > 100 µM
EKVX NSCLC
  GI50: 77.1 µM
  TGI: > 100 µM
NCI-H226 lung
  GI50: > 100 µM
  TGI: > 100 µM
SK-MEL-5 melanoma
  GI50: 2.69 µM
  TGI: 7.98 µM
PC-3 prostate
  GI50: 3.08 µM
  TGI: > 100 µM
COLO 205 colon
  GI50: 25.2 µM
  TGI: > 100 µM
HT29 colon
  GI50: > 100 µM
  TGI: > 100 µM
SN12C renal
  GI50: > 100 µM
  TGI: > 100 µM
UACC-62 melanoma
  GI50: 0.353 µM
  TGI: > 100 µM
SR leukemia
  GI50: 26.6 µM
  TGI: > 100 µM
OVCAR-5 ovarian
  GI50: > 100 µM
  TGI: > 100 µM
DU-145 prostate
  GI50: > 100 µM
  TGI: > 100 µM
OVCAR-3 ovarian
  GI50: 36.2 µM
  TGI: > 100 µM
MDA-MB-231 breast
  GI50: 8.23 µM
  TGI: > 100 µM
HCT-116 colon
  GI50: > 100 µM
  TGI: > 100 µM
SNB-19 CNS
  GI50: > 100 µM
  TGI: > 100 µM
RPMI-8226 leukemia
  GI50: > 100 µM
  TGI: > 100 µM
